The text below walks through data of patent US11953435B2, “Zinc-responsive fluorophores” (Northwestern University, priority 2019, dated 2024).

For series [1] the following is noted: previously reported value; read-out: zinc dissociation constant (reported); cited from earlier work.
A further series deals with MII egg. The following applies: previously reported; cited from earlier work.
Series [2] can be described thus: Stability of ZincBY-4 over 12 h by fluorescence intensity. The class given is physicochemical. The following applies: for retention of fluorescence intensity after 12 hours: 10 mM glutathione (GSH); for fluorescence intensity after 12 hours: absence of GSH. On the procedure:
(§1) Aqueous solutions were prepared by using de-ionized water with resistivity […], obtained using a Milli-Q water purification system. In order to properly compare the photophysical properties of ZincBY-2, ZincBY-3, and ZincBY-4 to ZincBY-1, the photophysical properties of ZincBY-1 we remeasured. […] Stock solutions of ZincBY-1, ZincBY-2, ZincBY-3, and ZincBY-4 were prepared at concentrations of 5 mM and stored at −20° C. in aliquots that were used immediately after thawing for each experiment. Unless otherwise stated, all spectroscopic methods were conducted in aqueous buffer containing 50 mM HEPES (pH 7.2) and 0.1 M KNO3. UV-visible spectra were acquired on a PerkinElmer Lambda 650 UV/Vis spectrophotometer using quartz cuvettes from Starna (1 cm path length, 10 cm path length used in extinction coefficient and quantum yield determination). Fluorescence spectra were acquired using a PerkinElmer LS 55 fluorescence spectrophotometer. For measurements containing zinc, 99.0% ZnNO3 hexahydrate (final concentration 5 μM) was used. For experiments analyzing apo probes, N,N,N′,N′-Tetrakis(2-pyridylmethyl)ethylenediamine (TPEN) (final concentration 5 μM) was added to solution. Quantum Yield and Extinction Coefficient Determination. Quantum yields for apo and holo ZincBY-1, ZincBY-2, ZincBY-3, and ZincBY-4 were determined by plotting absorbance vs. fluorescence intensity of solutions containing ZincBY-1, ZincBY-2, ZincBY-3, or ZincBY-4 at probe concentrations ranging from 50-250 nM. […] Fluorescein dissolved in 0.1 N NaOH was used as the quantum yield standard, using a literature-determined quantum yield of 0.95.^3 For all fluorophore solutions, fluorescence excitation was set at 490 nm and fluorescence emission was integrated from 510 nm to 650 nm. […] Fluorescence spectra were recorded using zinc probes (ZincBY-1, ZincBY-2, ZincBY-3, or ZincBY-4; 200 nM) and ZnSO4 (various concentrations). […] Free Zn^2+ was calculated according to a previously reported method (Ref. B4; incorporated by reference in its entirety). […] The fluorescence spectra of zinc probes (ZincBY-2, ZincBY-3, or ZincBY-4; 200 nM) wasere measured at various pH values (4.5-11). […] The fluorescence spectra of zinc probes (ZincBY-2, ZincBY-3, or ZincBY-4; 200 nM) were measured in the presence an excess of metal ion including 1 mM KNO3, 1 mM NaNO3, 1 mM CaSO4, 1 mM MgSO4, 15 μM MnSO4, 15 μM (NH4)2Fe(SO4)2, 15 μM NH4Fe(SO4)2, 15 μM CoSO4, 15 μM NiSO4, 15 μM CuSO4, 15 μM [Cu(CH3CN)4]PF6, 15 μM CdSO4, 15 μM Hg(NO3)2, 15 μM Pb(NO3)2, or 15 μM ZnSO4. The fluorescence spectra were compared to that of ZincBY-2 (200 nM), ZincBY-3 (200 nM), or ZincBY-4 (200 nM) in the presence of 10 μM TPEN. […] A log P value for each probe was determined by agitating nanomolar solutions of each probe in a 1:1 mixture of HEPES buffer and 1-octanol. […]

The nature of series [3]: Photophysical properties in solvents of varied dielectric constants (water/acetonitrile). The class given is physicochemical. The procedure:
as §1

Regarding `COc1ccc2n1[B-](F)(F)[N+]1=C(N(CCN(Cc3ccccn3)Cc3ccccn3)Cc3ccccn3)C=CC1=C2c1c(C)cc(C)cc1C` [ZincBY-1, reference compound], the Kd in series [1] was 2.6 nM. In the series with MII egg, the “working concentrations lower than those employed with other probes” value is 20-200 fold.

`CC(=O)NCCOc1ccc2n1[B-](F)(F)[N+]1=C(N(CCN(Cc3ccccn3)Cc3ccccn3)Cc3ccccn3)C=CC1=C2c1c(C)cc(C)cc1C` [ZincBY-4, N-(2-((7-((2-(bis(pyridin-2-ylmethyl)amino)ethyl)(pyridin-2-ylmethyl)amino)-5,5-difluoro-10-mesityl-5H-5λ4,6λ4-dipyrrolo[1,2-c:2′,1′-f][1,3,2]diazaborinin-3-yl)oxy)ethyl)acetamide]: in series [2] (apo), the “retention of fluorescence intensity after 12 hours” value was 40% and the “fluorescence intensity after 12 hours” value is given as 7%. For the same compound, in series [2] (holo), the “retention of fluorescence intensity after 12 hours” value was 97% and the “fluorescence intensity after 12 hours” value came out at 83%. Further, in series [3] (apo), the “emission maximum wavelength as the dielectric constant decreases” value is “does not change” and the “fluorescence intensity as the dielectric constant changes” value is listed as “does change in response to dielectric constant”. Besides, in series [3] (holo), the “emission maximum wavelength as the dielectric constant decreases” value is 575 nm and the “fluorescence intensity as the dielectric constant changes” value is given as “does not change as the dielectric constant changes”.
